Source: patent publication US20260174739A1 (priority 2022, published 2026)
Where two headings read alike, the source gives them in different places. Values belong to the compound of their own block, whether it stands above or below them.

Experiments:
human DAT = human DAT (Homo sapiens, UniProt Q01959); experiment: DAT transporter inhibitory activity test (neurotransmitter transporter uptake assay kit); type: cell-based; conditions: DAT stably transfected HEK cells; read-out: DAT (IC50)
Procedure: Transporter inhibition of human DAT and NET expressed in HEK-293 cells was assessed using a neurotransmitter transporter uptake assay kit. The assay was performed as described in the kit instructions, using centanafadine as a positive control. The specific procedures were as follows:
DAT stably transfected culture: The DAT-HEK cell line was cultured in DMEM medium containing 10% fetal bovine serum and 0.2 mg/mL hygromycin B at 37° C. with 5% carbon dioxide.
DAT stably transfected cell passage: the old medium was removed, and the cells were washed once with PBS; 1 mL of TrypLE™ Express solution was then added, and the cells were incubated at 37° C. for about 2 min. When the cells were detached from the bottom of the dish, about 5 mL of complete medium pre-heated at 37° C. was added. The cell suspension was gently pipetted to separate the aggregated cells. The cell suspension was transferred to a sterile centrifuge tube and centrifuged at 1000 rpm for 5 min. In order to maintain the physiological activity of the cells, the experimental cell confluence was controlled at about 80%.
• a) After overnight transfection of NET cells, the cells were digested with trypsin, resuspended with DMEM+10% Dialyzed FBS medium, seeded into a 384-well plate at 20000 cells/well, and incubated overnight. […] After centrifuging, the plate was incubated at 37° C. for 30 min. • e) A detection reagent was prepared using 1×HBSS, and 16 μL of the detection reagent was added to each well. […] Curve fitting and IC50 calculation were performed using GraphPad Prism software nonlinear regression method.

[1] = In vivo metabolism (pharmacokinetic) experiment in mice; parameters: species or system male ICR mice; conditions: mouse, male ICR mice; for AUC(0-inf) / Cmax / half-life: oral 10 mg/kg, plasma; for AUC(0-inf): read-out: AUC0-inf(po); for Cmax: read-out: Cmax (po); for half-life: read-out: T1/2 (po) (converted)
Procedure: Animal: male ICR mice. The animals were randomly assigned to treatment groups and fasted for 12 h prior to dosing.
Drug: the compound of the present disclosure was dissolved in a vehicle (5% DMSO+5% Solutol HS15+90% saline). For intravenous (iv) administration, the dose was 2.5 mg/kg with a dosing volume of 5 mL/kg; for oral (po) administration, the dose was 10 mg/kg with a dosing volume of 10 mL/kg body weight. Sample collection and bioanalysis: blood was collected from the orbit of the mice and added into EP tubes containing heparin sodium at 0.083, 0.25, 0.5, 1, 2, 4, 6, and 8 h (n=3 for each time point). Immediately after blood collection, the mice were euthanized by cervical dislocation, and mouse brains were collected at the corresponding time points. All samples were promptly collected, snap-frozen, and stored at −70° C. for later use. Plasma samples were obtained by centrifugation of whole blood. 10 μL of plasma was mixed with 190 μL of internal standard solution (20 ng/ml in acetonitrile containing 0.1% formic acid). After mixing, the samples were centrifuged at 13000 rpm for 10 min, and 120 μL of the supernatant was separately collected. Depending on the sensitivity of the compound, 0.5-10 μL of the supernatant was taken for drug analysis using the appropriate liquid chromatography-tandem mass spectrometry (LC-MS/MS). Each analyte was calibrated and identified using standards. According to brain tissue: the extract (50% acetonitrile/water) at a ratio of 1 g:8 mL was homogenized for 2 min using five 3 mm magnetic beads in an OMNI Bead Ruptor 24 Elite homogenizer at 3.2 m/s and centrifuged at 4° C. and 3000 g for 3 min. 50 μL of the supernatant was mixed with 200 μL of internal standard solution (20 ng/mL in 80% acetonitrile/water). After mixing, the samples were centrifuged at 13,000 rpm for 10 min, and 120 μL of the supernatant was separately collected. Depending on the sensitivity of the compound, 0.5-10 μL of the supernatant was taken for drug analysis using the appropriate LC-MS/MS method. Each analyte was calibrated and identified using standards.
Data analysis: drug concentrations below the lower limit of quantification (LLOQ) were considered zero. Pharmacokinetic parameters were analyzed using PK Solver with a non-compartmental, bolus injection or extravascular input analysis models. Data points below the LLOQ were excluded to improve the efficacy of t1/2 calculation.

Sequence of human DAT (Q01959 whole entry): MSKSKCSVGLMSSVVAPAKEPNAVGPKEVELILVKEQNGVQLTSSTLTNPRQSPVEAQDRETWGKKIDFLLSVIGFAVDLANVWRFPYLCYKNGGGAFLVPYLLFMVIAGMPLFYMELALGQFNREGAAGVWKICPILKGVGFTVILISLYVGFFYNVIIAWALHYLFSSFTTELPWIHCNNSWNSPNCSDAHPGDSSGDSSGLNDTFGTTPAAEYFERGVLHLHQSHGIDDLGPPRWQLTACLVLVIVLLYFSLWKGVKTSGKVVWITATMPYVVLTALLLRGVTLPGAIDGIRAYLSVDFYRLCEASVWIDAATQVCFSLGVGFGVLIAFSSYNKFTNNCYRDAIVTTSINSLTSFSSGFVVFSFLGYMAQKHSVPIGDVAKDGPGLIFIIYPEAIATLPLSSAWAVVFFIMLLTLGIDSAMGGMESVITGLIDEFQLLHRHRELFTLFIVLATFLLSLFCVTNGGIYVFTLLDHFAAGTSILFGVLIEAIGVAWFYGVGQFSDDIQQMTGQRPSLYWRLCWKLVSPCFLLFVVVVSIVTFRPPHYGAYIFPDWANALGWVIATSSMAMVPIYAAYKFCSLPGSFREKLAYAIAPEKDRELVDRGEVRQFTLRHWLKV

Compound: CC(C)Oc1cccc(C2(N)CCc3nc(N)sc3C2)c1 (racemic) [rac-A321, 6-(3-isopropoxyphenyl)-4,5,6,7-tetrahydrobenzo[d]thiazole-2,6-diamine]
IC50 (human DAT): 5.9 µM

Compound: c1ccc(C2(N3CCOCC3)CCc3sccc3C2)cc1 (racemic) [rac-A47, 4-(5-phenyl-4,5,6,7-tetrahydrobenzothiophen-5-yl)morpholine]
IC50 (human DAT): 1.3 µM

Compound: COc1cccc(C2(N(C)C)CCc3nc(N)sc3C2)c1 (racemic) [rac-A283, 6-(3-methoxyphenyl)-N^6,N^6-dimethyl-4,5,6,7-tetrahydrobenzo[d]thiazole-2,6-diamine]
IC50 (human DAT): 0.45 µM

Compound: CN(C)C1(c2cccc(O)c2)CCc2nc(N)sc2C1 (racemic) [rac-A305, 3-(2-amino-6-dimethylamino-4,5,6,7-tetrahydrobenzo[d]thiazol-6-yl)phenol]
IC50 (human DAT): 0.24 µM

Compound: c1ccc(C2(N3CCCC3)CCc3nnsc3C2)cc1 (racemic) [rac-A54, 6-phenyl-6-(pyrrolidin-1-yl)-4,5,6,7-tetrahydrobenzothiadiazole]
IC50 (human DAT): 2.8 µM

Compound: CCOc1cccc(C2(NC)CCc3nc(N)sc3C2)c1 (racemic) [rac-A342, 6-(3-ethoxyphenyl)-N^6-methyl-4,5,6,7-tetrahydrobenzo[d]thiazole-2,6-diamine]
IC50 (human DAT): 0.35 µM

Compound: Nc1nc2c(s1)CC(N)(c1ccc3c(c1)OCO3)CC2 (racemic) [rac-A303, 6-(benzo[d][1,3]dioxol-5-yl)-4,5,6,7-tetrahydrobenzo[d]thiazole-2,6-diamine]
IC50 (human DAT): 8.2 µM

AUC(0-inf) ([1]; male, ICR, po, 10 mg/kg): 3900 ng·h/mL
Cmax ([1]; male, ICR, po, 10 mg/kg): 2710 ng/mL
half-life ([1]; male, ICR, po, 10 mg/kg): 2.6 h
Compound: O=C(O)c1cc2c(s1)CCC(c1ccccc1)(N1CCOCC1)C2 (racemic) [rac-A46, 5-morpholino-5-phenyl-4,5,6,7-tetrahydrobenzothiophen-2-carboxylic acid]

Compound: Clc1cccc(C2(N3CCCCC3)CCc3nnsc3C2)c1 (racemic) [rac-A58, 6-(3-chlorophenyl)-6-(piperidin-1-yl)-4,5,6,7-tetrahydrobenzothiadiazole]
IC50 (human DAT): 2.7 µM

Compound: Nc1nc2c(s1)C[C@@](c1ccccc1)(N1CCCC1)CC2 [S-A50]
IC50 (human DAT): 2.4 µM

Compound: CNC1(c2ccc(Cl)cc2)CCc2nc(N)sc2C1 (racemic) [rac-A332, 6-(4-chlorophenyl)-N^6-methyl-4,5,6,7-tetrahydrobenzo[d]thiazole-2,6-diamine]
IC50 (human DAT): 3.2 µM

Compound: COc1cc(C2(N)CCc3nc(N)sc3C2)ccn1 (racemic) [rac-A309, 6-(2-methoxypyridin-4-yl)-4,5,6,7-tetrahydrobenzo[d]thiazole-2,6-diamine]
IC50 (human DAT): 14 µM

Compound: CNC1(c2ccccc2)CCc2[nH]ncc2C1 (racemic) [rac-A69, N-methyl-5-phenyl-4,5,6,7-tetrahydro-1H-indazol-5-amine]
bioavailability ([1]; oral 10 mg/kg vs iv 2.5 mg/kg, read-out: F (%)): 132%
AUC(0-inf) [1]: 602 ng·h/mL
Cmax [1]: 456 ng/mL
half-life [1]: 0.69 h

Compound: CNC1(c2cccnc2)CCc2nc(N)sc2C1 (racemic) [rac-A99, N^6-methyl-6-(pyridin-3-yl)-4,5,6,7-tetrahydrobenzothiazole-2,6-diamine]
IC50 (human DAT): 11 µM

Compound: CNCC1(c2ccccc2)CCc2nc(N)sc2C1 (racemic) [rac-A252, 6-((methylamino)methyl)-6-phenyl-4,5,6,7-tetrahydrobenzo[d]thiazol-2-amine]
IC50 (human DAT): 9.5 µM

Compound: Nc1nc2c(s1)CC(NCC1CC1)(c1ccccc1F)CC2 (racemic) [rac-A374, N^6-(cyclopropylmethyl)-6-(2-fluorophenyl)-4,5,6,7-tetrahydrobenzo[d]thiazole-2,6-diamine]
IC50 (human DAT): 3.8 µM

Compound: N[C@@]1(c2ccccc2)CCc2ncsc2C1 [S-A14]
IC50 (human DAT): 11 µM

Compound: CCOc1cccc([C@]2(N)CCc3nc(N)sc3C2)c1 [S-A228, (S)-6-(3-ethoxyphenyl)-4,5,6,7-tetrahydrobenzo[d]thiazole-2,6-diamine]
IC50 (human DAT): 1.8 µM

Compound: Nc1nc2c(s1)C[C@](N)(c1ccccc1)CC2 [S-A1]
IC50 (human DAT): 6.5 µM

Compound: NC1(c2cccc(O)c2)CCc2nc(NCC(F)(F)F)sc2C1 (racemic) [rac-A396, 3-(6-amino-2-((2,2,2-trifluoroethyl)amino)-4,5,6,7-tetrahydrobenzo[d]thiazol-6-yl)phenol]
IC50 (human DAT): 18 µM
